Results on 13 molecules are retold here after publication PMC6278354, “Investigation of New Orexin 2 Receptor Modulators Using In Silico and In Vitro Methods” (Molecules, 2018).

Broadly, the Papp is a coefficient for how fast a substance crosses the barrier. Broadly, the IC50 is the concentration needed to halve the response being measured.

Data set [1] is described as follows: PAMPA assay for prediction of BBB penetration (polar brain lipid). Conditions: for Papp at 30 µM: PAMPA, pH 7.4; for CNS Predicted Availability: class from PAMPA Pe; for BBB permeation via passive diffusion, in words: from PAMPA Pe.
Another data set is described as follows: MTT cytotoxicity assay. The class given is cell-based. Conditions: Chinese hamster. The procedure: (§1) Adherent epithelial CHO-K1 cell line (Chinese hamster ovary, ATCC, #CCL-61, Manassas, VA, USA) was grown in Ham’s F12 Nutrient Mixture supplemented with 10% heat-inactivated FBS and antibiotics 1% penicillin (10,000 U/mL)/streptomycin (10,000 µg/mL) at 37 °C, 95% humidity and under 5% CO2.
(§2) The cytotoxic effect of the studied compounds was assessed using standard MTT (3-[4–dimethylthiazol-2-yl]-2,5-diphenyltetrazolium bromide) assay on the CHO-K1 cell line. […] Cells were seeded in 96-well plates and exposed to the tested compounds in the medium (100 µL) for 24 h at 37 °C, 95% humidity, and in an atmosphere of 5% CO2. Subsequently, this medium was replaced by the medium containing MTT (10 µM) and incubated for another 3–4 h. After that, the medium with MTT was removed and formazan crystals were dissolved by the addition of 100 µL DMSO. Viability of the cells was estimated spectrophotometrically by the amount of produced formazan. The absorbance was measured at 570 nm, with 650 nm as a reference wavelength on a Synergy HT reader (Biotek, USA). Results were expressed as IC50 from the control-subtracted triplicates (in comparison with untreated control) using non-linear regression (four parameters) in GraphPad Prism 7.03 (GraphPad Software Inc., CA, USA).
(Tetrazolium assays rely on reduction of a dye to a coloured formazan, in cell work by metabolically active cells.)

For data set [2], the target named is T1, human OX2R (Homo sapiens, UniProt O43614).
T1 construct: host or cells: CHO-K1
T1 sequence (O43614 1-444): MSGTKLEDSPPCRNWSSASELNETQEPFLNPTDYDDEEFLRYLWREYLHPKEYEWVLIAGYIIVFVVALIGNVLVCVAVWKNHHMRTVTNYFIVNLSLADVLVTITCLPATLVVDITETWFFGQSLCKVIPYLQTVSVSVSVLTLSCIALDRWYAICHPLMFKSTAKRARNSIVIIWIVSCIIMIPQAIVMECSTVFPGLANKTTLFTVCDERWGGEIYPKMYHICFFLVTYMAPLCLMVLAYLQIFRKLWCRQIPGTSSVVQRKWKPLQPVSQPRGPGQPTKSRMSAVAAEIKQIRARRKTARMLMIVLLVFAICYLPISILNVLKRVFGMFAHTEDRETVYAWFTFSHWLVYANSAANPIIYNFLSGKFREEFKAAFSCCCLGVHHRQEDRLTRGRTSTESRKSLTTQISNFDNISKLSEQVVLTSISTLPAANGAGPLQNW
As to the kind of experiment: OX2R calcium assay, antagonist mode against orexin A (Fluo-3, CHO-K1 cells stably expressing human OX2R). Format: cell-based. Conditions: for IC50: 0.1 μM orexin A as agonist, mean ± SEM, n = 3, read-out: IC50 antagonistic effect in orexin A-OX2R interaction; for antagonistic screening: reduction of orexin A response signal: ligand 10 μM, orexin A 100 nM, data not shown.

A further data set is described as follows: in vitro. Conditions: PAMPA, pH 7.4. In general terms: The PAMPA barrier holds no transporters, so it reflects passive diffusion.
The target of data set [3] is T1, human OX2R. Briefly: OX2R calcium assay, agonist mode (Fluo-3, CHO-K1 cells stably expressing human OX2R). Conditions: for agonistic effect in screening: 10 μM ligand; for agonistic effect at higher concentrations: higher concentrations than 10 μM, data not shown. The class given is cell-based.
For data set [4] the following is noted: PAMPA, pH 7.4.
The test system of the next data set is CHO-K1 cell line. As to the kind of experiment: MTT cytotoxicity assay. Format: cell-based. Conditions: Chinese hamster, 24 h. The procedure:
as §1, §2

The mark [5] stands for this setting: CHO-K1 cells, MTT, 24 h exposure, read-out: Cytotoxicity CHO-K1 IC50 ± SEM.

Like-named read-outs stand apart in the source and are kept apart here.

On to `NS(=O)(=O)c1cc2c(cc1Cl)N=CNS2(=O)=O` [Chlorothiazide, reference compound], for which the Papp at 30 µM in data set [1] is […].

For the molecule `O=C(c1cnn(-c2ncc3c(n2)-c2ccccc2CC3)c1C1CC1)N1CCN(Cc2ccccc2)CC1` [Ligand L1, 1-(1-{5H,6H-benzo[h]quinazolin-2-yl}-5-cyclopropyl-1H-pyrazole-4-carbonyl)-4-benzylpiperazine], the IC50 at 24 h in the data set “MTT cytotoxicity assay” (setting [5]) stood at 78.8 ± 6.88 µM. In data set [1], the Papp at 30 µM is 10.2 ± 0.9 ×10⁻⁶ cm/s and the “CNS Predicted Availability” value was “CNS + (CNS + (high BBB permeation predicted): Pe (×10^−6 cm s^−1) > 4.0)”.

In the case of `O=C1CN(C(=O)CN2CCN(S(=O)(=O)c3ccc4ccccc4c3)CC2)c2ccccc2N1` [Ligand L2, 4-{2-[4-(naphthalene-2-sulfonyl)piperazin-1-yl]acetyl}-1,2,3,4-tetrahydroquinoxalin-2-one], the IC50 at 24 h in “MTT cytotoxicity assay” (setting [5]) stood at 165 ± 5.36 µM. In data set [1], the Papp at 30 µM was 31.6 ± 3.4 ×10⁻⁶ cm/s and the “CNS Predicted Availability” value was “CNS + (CNS + (high BBB permeation predicted): Pe (×10^−6 cm s^−1) > 4.0)”.

Take `O=C(c1cc(-c2ccco2)nc2ccccc12)N1CCN(C(=O)C2COc3ccccc3O2)CC1` (stereo not shown) [Ligand L3, 4-[4-(2,3-dihydro-1,4-benzodioxine-2-carbonyl)piperazine-1-carbonyl]-2-(furan-2-yl)quinoline]: the IC50 at 24 h in “MTT cytotoxicity assay” (setting [5]) was 279 ± 36.6 µM. Moreover, in data set [1], the Papp at 30 µM is 17.9 ± 2.2 ×10⁻⁶ cm/s and the “CNS Predicted Availability” value was “CNS + (CNS + (high BBB permeation predicted): Pe (×10^−6 cm s^−1) > 4.0)”. On human OX2R [2], the IC50 came out at 8.9 ± 0.43 µM and the “antagonistic screening: reduction of orexin A response signal” value (shortened to “antagonistic screening: reduction”) was “significantly reduce the signal of orexin A response”.

Consider `O=C(c1cc(-c2ccco2)nc2ccccc12)N1CCN(c2ccc(=O)n(-c3ccc(F)cc3)n2)CC1` [Ligand L4, 2-(4-fluorophenyl)-6-{4-[2-(furan-2-yl)quinoline-4-carbonyl]piperazin-1-yl}-2,3-dihydropyridazin-3-one], for which the IC50 at 24 h in the data set “MTT cytotoxicity assay” (setting [5]) was determined as 99.8 ± 10.7 µM. Also, in data set [1], the Papp at 30 µM was 18.3 ± 0.1 ×10⁻⁶ cm/s and the “CNS Predicted Availability” value was “CNS + (CNS + (high BBB permeation predicted): Pe (×10^−6 cm s^−1) > 4.0)”. Also, at human OX2R [2], the IC50 was 2.2 ± 0.47 µM and the “antagonistic screening: reduction” value was “significantly reduce the signal of orexin A response”.

On to `CC1CCCC(=O)CCC/C=C/c2cc3c(c(O)c2C(=O)O1)C(c1cc2ccccc2nc1O)CC(=O)O3` (stereo not shown) [Ligand L5, (12E)-22-hydroxy-20-(2-hydroxyquinolin-3-yl)-4-methyl-3,17-dioxatricyclo[12.8.0.0^16,21]docosa-1(14),12,15,21-tetraene-2,8,18-trione], for which, in the data set “in vitro”, the Papp turned out to be 12 ± 2.5 ×10⁻⁶ cm/s. In addition, the IC50 at 24 h in “MTT cytotoxicity assay” (MTT, 24 h exposure, read-out: Cytotoxicity CHO-K1 IC50 ± SEM) is 59 ± 6.41 µM. Moreover, the “CNS Predicted Availability” value in data set [1] is given as “CNS + (CNS + (high BBB permeation predicted): Pe (×10^−6 cm s^−1) > 4.0)”.

Regarding `Cn1c(=O)c2c(-c3ccccc3)n3c(c2n(C)c1=O)C(c1coc2ccccc2c1=O)OCC3` (stereo not shown) [Ligand L6, 3,5-dimethyl-13-(4-oxo-4H-chromen-3-yl)-8-phenyl-12-oxa-3,5,9-triazatricyclo[7.4.0.0^2,7]trideca-1,7-diene-4,6-dione], in the data set “MTT cytotoxicity assay” (setting [5]), the IC50 at 24 h is over 100 µM. For the same molecule, on human OX2R [3], the “agonistic effect in screening” value is “subtle agonistic effect” and the “agonistic effect at higher concentrations” value was “neither an agonistic nor dose-response effect”. Moreover, in data set [1], the Papp at 30 µM was 17.6 ± 6.4 ×10⁻⁶ cm/s and the “CNS Predicted Availability” value is listed as “CNS + (CNS + (high BBB permeation predicted): Pe (×10^−6 cm s^−1) > 4.0)”. Also, on human OX2R [2], the IC50 came to 12.2 ± 3.1 µM and the “antagonistic screening: reduction” value is recorded as “significantly reduce the signal of orexin A response”.

Regarding `Cc1ccccc1Cn1cc(/C=C2\C(=N)N3N=C(CC(=O)N4CCCC4)SC3=NC2=O)c2ccccc21` [Ligand L7, (6E)-5-imino-6-({1-[(2-methylphenyl)methyl]-1H-indol-3-yl}methylidene)-2-[2-oxo-2-(pyrrolidin-1-yl)ethyl]-5H,6H,7H-[1,3,4]thiadiazolo[3,2-a]pyrimidin-7-one], the IC50 at 24 h in the data set “MTT cytotoxicity assay” (setting [5]) came out at 61.8 ± 3.74 µM. Besides, in data set [1], the Papp at 30 µM is 3.37 ± 2.1 ×10⁻⁶ cm/s; the “CNS Predicted Availability” value is “CNS +/− (CNS +/− (BBB permeation uncertain): Pe (×10^−6 cm s^−1) from 4.0 to 2.0)”; the “BBB permeation via passive diffusion, in words” value was “uncertain permeation through the BBB”. Moreover, in data set [1] (PAMPA-BBB, PBS pH 7.4, 30 µM donor, at least three measurements), the “Pe ± SEM” value was 2.0–4.0 ×10^−6 cm s^−1. In addition, at human OX2R [2], the IC50 stood at 25 ± 2.6 µM and the “antagonistic screening: reduction” value is reported as “significantly reduce the signal of orexin A response”.

In the case of `O=C(Nc1ccc2n(c1=O)C[C@H]1C[C@@H]2CN(C(=O)c2ccccn2)C1)c1ccccc1` [Ligand L8, N-[(1R,9S)-6-oxo-11-(pyridine-2-carbonyl)-7,11-diazatricyclo[7.3.1.0^2,7]trideca-2,4-dien-5-yl]benzamide], in data set [4], the “Pe ± SEM” value is listed as 2.0–4.0. In the data set “in vitro”, this molecule displayed a Papp at 30 µM of 4 ± 0.3 ×10⁻⁶ cm/s. The IC50 at 24 h in “MTT cytotoxicity assay” (Cytotoxicity CHO-K1 IC50 ± SEM) was over 700 µM. Moreover, in the data set on CHO-K1 cell line, the IC50 is about 700 µM. In data set [1], the “CNS Predicted Availability” value is “CNS +/− (CNS +/− (BBB permeation uncertain): Pe (×10^−6 cm s^−1) from 4.0 to 2.0)” and the “BBB permeation via passive diffusion, in words” value was “uncertain permeation through the BBB”.

Consider `O=C(Cn1nc(-c2ccc(F)cc2)oc1=O)N1CCCC1c1ccc2c(c1)OCCCO2` (stereo not shown) [Ligand L9, 3-{2-[2-(3,4-dihydro-2H-1,5-benzodioxepin-7-yl)pyrrolidin-1-yl]-2-oxoethyl}-5-(4-fluorophenyl)-2,3-dihydro-1,3,4-oxadiazol-2-one], for which the IC50 at 24 h in “MTT cytotoxicity assay” (setting [5]) came to 144 ± 11.1 µM. Also, on human OX2R [3], the “agonistic effect in screening” value is “subtle agonistic effect” and the “agonistic effect at higher concentrations” value is “neither an agonistic nor dose-response effect”. Besides, in data set [1], the Papp at 30 µM is 32.3 ± 1.5 ×10⁻⁶ cm/s and the “CNS Predicted Availability” value is on record as “CNS + (CNS + (high BBB permeation predicted): Pe (×10^−6 cm s^−1) > 4.0)”.

For `O=C1CC(C(=O)Nc2cccc(-c3ccc4c(c3)CCO4)c2)c2ccccc2N1` (stereo not shown) [Ligand L10, N-[3-(2,3-dihydro-1-benzofuran-5-yl)phenyl]-2-oxo-1,2,3,4-tetrahydroquinoline-4-carboxamide], the IC50 at 24 h in the data set “MTT cytotoxicity assay” (setting [5]) worked out at 53.9 ± 5.03 µM. Also, in data set [1], the Papp at 30 µM is 18.9 ± 2.4 ×10⁻⁶ cm/s and the “CNS Predicted Availability” value is reported as “CNS + (CNS + (high BBB permeation predicted): Pe (×10^−6 cm s^−1) > 4.0)”. Moreover, at human OX2R [2], the IC50 came to 27.8 ± 0.5 µM and the “antagonistic screening: reduction” value is recorded as “significantly reduce the signal of orexin A response”.

For `CCn1nnc2cc(C(=O)Nc3ccc4[nH]c(-c5cc(F)ccc5F)nc4c3)ccc21` [Ligand L11, N-[2-(2,5-difluorophenyl)-1H-1,3-benzodiazol-5-yl]-1-ethyl-1H-1,2,3-benzotriazole-5-carboxamide], the IC50 at 24 h in the data set “MTT cytotoxicity assay” (setting [5]) is 28.3 ± 4.07 µM. On human OX2R [3], the “agonistic effect in screening” value is recorded as “subtle agonistic effect” and the “agonistic effect at higher concentrations” value is reported as “neither an agonistic nor dose-response effect”.

Turning to `CNC(=C[N+](=O)[O-])NCCSCc1ccc(CN(C)C)o1` [Ranitidine, reference compound], the Papp in the data set “in vitro” was found to be 0.04 ± 0.02 ×10⁻⁶ cm/s. For the same molecule, the “CNS Predicted Availability” value in data set [1] is “CNS − (CNS − (low BBB permeation predicted): Pe (×10^−6 cm s^−1) < 2.0)”.
